This data set can be described thus: logP by HPLC (EEC Directive 79/831 Annex V.A8). The format is physicochemical.
[1] abbreviates: [b] LC-MS, acidic range, pH 2.7, 0.1% aqueous formic acid and acetonitrile.
Where [2] appears, read: [c] LC-MS, neutral range, pH 7.8, 0.001 molar aqueous ammonium bicarbonate and acetonitrile.

Broadly, the logP is the decadic logarithm of the partition coefficient of the neutral form, usually between octanol and water. Take `Cc1ccc(C)c(NC(=O)N2CCC(c3nc(C(=O)OCc4c(F)cccc4F)cs3)CC2)c1` [Example 121]: under setting [1], the logP was 3.38^[b]. With `Cc1ccc(Cl)cc1NC(=S)N1CCC(c2nc(C(=O)OCc3ccccc3Br)cs2)CC1` [Example 112], the logP was determined as 4.3 under setting [1] and 4.27 under setting [2]. Take `O=C(Oc1cccc2ccccc12)c1csc(C2CCN(C(=O)Cc3cccc(Cl)c3)CC2)n1` [Example 10]: under setting [1], the lipophilicity (logP) is 4.01^[b]. Still for that read-out and setting: as for `Cc1ccc(Cl)c(NC(=O)N2CCC(c3nc(C(=O)OC4CCCc5ccccc54)cs3)CC2)c1` (stereo not drawn) [Example 100], the figure is 4.61^[b]. `Cc1ccc(C)c(NC(=O)N2CCC(c3nc(C(=O)OC4CCCCC4)cs3)CC2)c1` [Example 59, Cyclohexyl 2-{1-[(2,5-dimethylphenyl)carbamoyl]piperidin-4-yl}-1,3-thiazole-4-carboxylate]: the chromatographic logP (pH 2.7, given in the preparation examples, read-out: log P (pH 2.7)) is 3.82. For `Cc1cc(C(F)(F)F)nn1CC(=O)N1CCN(c2nc(C(=O)OC(C)c3cc(Cl)ccc3Cl)cs2)CC1` (stereo not drawn) [Example 31], the logP under setting [1] is 4.28^[b]. As for `Cc1noc(C)c1NC(=S)N1CCC(c2nc(C(=O)OCc3ccccc3Br)cs2)CC1` [Example 119], the logP reads like this: under setting [1], 3.2; under setting [2], 3.21. On to `Cc1ccc(C)c(NC(=O)N2CCC(c3nc(C(=O)Oc4c(Cl)cccc4Cl)cs3)CC2)c1` [Example 151], for which, under setting [1], the logP is 3.82^[b]. On the same count and under the same terms, as for `Cc1nc(C)n(CC(=O)N2CCC(c3nc(C(=O)Oc4cccc5ccccc45)cs3)CC2)n1` [Example 28], the figure is 2.17^[b]. Turning to `Cc1ccc(C)c(NC(=O)N2CCC(c3nc(C(=O)Oc4ccccc4I)cs3)CC2)c1` [Example 154], the logP under setting [1] was 3.69^[b]. On the same count and under the same terms, next, `CCCCC(=O)N1CCC(c2nc(C(=O)OC3CCCCC3)cs2)CC1` [Example 4]: 3.64^[b].

Consider `O=C(OCc1ccccc1Br)c1csc(C2CCN(C(=S)Nc3cc(F)ccc3F)CC2)n1` [Example 116], for which the logP by setting is: under setting [1], 3.83; under setting [2], 3.87.

Source of the values: patent US8501781B2 (priority 2009, dated 2013).
